Measurements reported in ChEMBL document CHEMBL1201862, “PubChem BioAssay data set” (2004).
The source made the active and inactive calls.

Columns and labels:
[1] = P. falciparum Dd2 growth inhibitors, dose response, SYBR Green, dry powder samples (AID 1159566); assay type: functional, cell-based;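 also: potency for growth inhibition with lower SYBR green DNA signal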
[2] = P. falciparum 3D7-ScDHODH growth inhibitors, dose response, SYBR Green, dry powder samples (AID 1159570); assay type: functional, cell-based;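 also: parasite growth measured after 72 hours of compound exposure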
[3] = inhibitors of HIV Env-driven cell fusion, dose response, cherry-pick (AID 652057); assay type: functional, cell-based
[4] = ZM109 Env clade C HIV-1 fusion inhibitors, dose response, HeLa effector, CEM target cells, luciferase, cherry-pick (AID 652058); assay type: functional, cell-based
[5] = P. falciparum Dd2 growth inhibitors, dose response, SYBR Green, cherry-picked samples (AID 1159567); assay type: functional, cell-based
[6] = inhibitors of clade B AD8 Env fusion, dose response, cell-based, cherry-pick (AID 652062); assay type: functional;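 also: luciferase signal from cell-cell fusion driven by HIV-1 clade B AD8 Env; potency is for inhibitors of fusion seen as a drop in luminescence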
[7] = P. falciparum ATP4 D1247Y mutant growth inhibitors, dose response, NITD609-resistant line, SYBR Green, dry powder (AID 1159571); assay type: functional, cell-based;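 also: parasites synchronized at ring stage by sorbitol before testing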
[8] = A cytotoxicity screen of small molecule inhibitors of the PhoP region in Salmonella typhi identified in the primary screen. [Related pubchem assays: 1850, 1864, 1985 ]; assay type: functional
[9] = ADAM10 inhibitors, peptide cleavage, dose response, biochemical, QFRET (AID 743254);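 also: ADAM10 enzyme with the DM2 quenched FRET peptide as substrate; EDANS fluorescence gain as the protease cuts the substrate; inhibitor potency against ADAM10 proteolytic activity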
[10] = molecular target: Disintegrin and metalloproteinase domain-containing protein 17 (Homo sapiens, UniProt P78536); assay: ADAM17 protease inhibitors, dose response, counter-screen for ADAM10 exosite inhibitor project, biochemical, quenched FRET substrate (AID 743253)
Disintegrin and metalloproteinase domain-containing protein 17, sequence (P78536 whole entry, the tested form may be a part): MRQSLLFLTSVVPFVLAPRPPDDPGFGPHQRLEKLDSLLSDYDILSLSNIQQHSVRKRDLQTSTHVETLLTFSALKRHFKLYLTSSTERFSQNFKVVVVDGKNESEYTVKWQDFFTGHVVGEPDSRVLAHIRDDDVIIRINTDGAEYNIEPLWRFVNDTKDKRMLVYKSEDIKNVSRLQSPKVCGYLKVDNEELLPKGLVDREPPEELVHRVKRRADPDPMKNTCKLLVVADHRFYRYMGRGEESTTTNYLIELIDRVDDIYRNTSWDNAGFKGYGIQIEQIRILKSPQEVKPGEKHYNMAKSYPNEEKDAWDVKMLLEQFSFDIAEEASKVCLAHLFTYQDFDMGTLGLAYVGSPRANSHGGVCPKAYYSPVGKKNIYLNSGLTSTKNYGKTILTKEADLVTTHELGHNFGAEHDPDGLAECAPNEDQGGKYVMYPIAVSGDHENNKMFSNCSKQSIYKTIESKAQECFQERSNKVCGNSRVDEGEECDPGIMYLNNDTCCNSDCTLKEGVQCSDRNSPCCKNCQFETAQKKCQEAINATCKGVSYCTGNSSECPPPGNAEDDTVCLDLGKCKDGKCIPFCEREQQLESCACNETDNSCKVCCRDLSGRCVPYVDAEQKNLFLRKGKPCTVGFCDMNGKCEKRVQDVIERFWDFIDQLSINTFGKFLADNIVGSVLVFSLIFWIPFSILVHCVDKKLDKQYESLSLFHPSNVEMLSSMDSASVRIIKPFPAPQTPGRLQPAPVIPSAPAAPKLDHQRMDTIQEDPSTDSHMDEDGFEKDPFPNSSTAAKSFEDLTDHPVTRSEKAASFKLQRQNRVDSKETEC

[11] = inhibitors of intracellular T. cruzi replication, confirmation, NIH3T3 host cells, beta-gal luminescence (AID 2044); assay type: functional, cell-based;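 also: intracellular parasites grown in NIH/3T3 mouse fibroblasts as host cells; luminescent beta-galactosidase reporter signal from transgenic T. cruzi replicating inside host cells; inhibitors lower the luminescence signal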
[12] = cytotoxicity toward NIH3T3 fibroblasts, dose response, counter-screen, cell-based, ATP luminescence, mouse fibroblasts (AID 2010); assay type: functional;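 also: cells exposed to compound for about 90 hours before reading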
[13] = molecular target: T1, Oxysterols receptor LXR-beta (Homo sapiens, UniProt P55055); assay: LXR agonists, Gal4 luciferase reporter, dose response, counter-screen for ssDAF-12 agonist project, cell-based, luminescence, HEK293, S. stercoralis campaign (AID 720737); assay type: functional; settings: read-out: IC50 (the source's name)
T1 sequence (P55055 whole entry): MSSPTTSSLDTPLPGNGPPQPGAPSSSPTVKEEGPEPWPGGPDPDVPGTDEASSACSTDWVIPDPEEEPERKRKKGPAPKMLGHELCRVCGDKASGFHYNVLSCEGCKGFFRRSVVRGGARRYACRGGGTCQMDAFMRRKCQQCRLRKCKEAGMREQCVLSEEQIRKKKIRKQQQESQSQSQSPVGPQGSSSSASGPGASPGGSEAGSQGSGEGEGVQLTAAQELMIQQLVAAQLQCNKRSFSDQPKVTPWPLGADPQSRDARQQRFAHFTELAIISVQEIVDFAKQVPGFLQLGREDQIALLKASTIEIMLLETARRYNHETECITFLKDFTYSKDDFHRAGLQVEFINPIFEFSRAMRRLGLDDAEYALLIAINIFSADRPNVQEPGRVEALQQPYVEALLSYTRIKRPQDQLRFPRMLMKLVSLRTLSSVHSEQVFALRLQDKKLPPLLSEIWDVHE

[14] = Luminescence-based cell-based high throughput dose response assay to identify activators of the DAF-12 from the parasite S. stercoralis (ssDAF-12).; assay type: functional
[15] = HEp-2 cell cytotoxicity, dose response, cytotoxicity control for RSV inhibitor project, HTS (AID 2410); assay type: functional; settings: human respiratory syncytial virus
INS1 = assay: beta cell apoptosis inhibitors, cytokine rescue, dose response, luminescence, retest (AID 449756); assay type: functional, cell-based; settings: Rattus norvegicus;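 also: cell death triggered by IL-1 beta plus TNF-alpha plus IFN-gamma mixture; protective hits raise ATP signal compared with cytokine alone wells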
[16] = NIH-3T3 fibroblast cytotoxicity, dose response, cytotoxicity control, cell-based, fluorescence, Alamar Blue, secondary assay (AID 2327); assay type: functional;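 also: NIH-3T3 mouse fibroblasts cultured with fluconazole at 8 µg/mL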
[17] = C. albicans growth with fluconazole, confirmation, fluorescence, retest (AID 2467); assay type: functional, cell-based
[18] = molecular target: FAD-linked sulfhydryl oxidase ALR (Homo sapiens, UniProt P55789); assay: inhibitors of human ALR sulfhydryl oxidase, dose response, biochemical, H2O2 detection, luminescence, cherry-pick (AID 493248)
FAD-linked sulfhydryl oxidase ALR, sequence (P55789 whole entry): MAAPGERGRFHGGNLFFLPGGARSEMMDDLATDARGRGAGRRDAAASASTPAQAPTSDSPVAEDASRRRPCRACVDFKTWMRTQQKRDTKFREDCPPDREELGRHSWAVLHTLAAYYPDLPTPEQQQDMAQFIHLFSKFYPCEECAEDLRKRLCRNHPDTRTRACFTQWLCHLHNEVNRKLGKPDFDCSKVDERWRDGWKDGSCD

[19] = molecular target: T2, Voltage-gated N-type calcium channel alpha-1B subunit/Amyloid beta A4 precursor protein-binding family A member 1 (Homo sapiens, UniProt Q00975+Q02410); assay type: protein assay
T2 sequence (Q00975 whole entry): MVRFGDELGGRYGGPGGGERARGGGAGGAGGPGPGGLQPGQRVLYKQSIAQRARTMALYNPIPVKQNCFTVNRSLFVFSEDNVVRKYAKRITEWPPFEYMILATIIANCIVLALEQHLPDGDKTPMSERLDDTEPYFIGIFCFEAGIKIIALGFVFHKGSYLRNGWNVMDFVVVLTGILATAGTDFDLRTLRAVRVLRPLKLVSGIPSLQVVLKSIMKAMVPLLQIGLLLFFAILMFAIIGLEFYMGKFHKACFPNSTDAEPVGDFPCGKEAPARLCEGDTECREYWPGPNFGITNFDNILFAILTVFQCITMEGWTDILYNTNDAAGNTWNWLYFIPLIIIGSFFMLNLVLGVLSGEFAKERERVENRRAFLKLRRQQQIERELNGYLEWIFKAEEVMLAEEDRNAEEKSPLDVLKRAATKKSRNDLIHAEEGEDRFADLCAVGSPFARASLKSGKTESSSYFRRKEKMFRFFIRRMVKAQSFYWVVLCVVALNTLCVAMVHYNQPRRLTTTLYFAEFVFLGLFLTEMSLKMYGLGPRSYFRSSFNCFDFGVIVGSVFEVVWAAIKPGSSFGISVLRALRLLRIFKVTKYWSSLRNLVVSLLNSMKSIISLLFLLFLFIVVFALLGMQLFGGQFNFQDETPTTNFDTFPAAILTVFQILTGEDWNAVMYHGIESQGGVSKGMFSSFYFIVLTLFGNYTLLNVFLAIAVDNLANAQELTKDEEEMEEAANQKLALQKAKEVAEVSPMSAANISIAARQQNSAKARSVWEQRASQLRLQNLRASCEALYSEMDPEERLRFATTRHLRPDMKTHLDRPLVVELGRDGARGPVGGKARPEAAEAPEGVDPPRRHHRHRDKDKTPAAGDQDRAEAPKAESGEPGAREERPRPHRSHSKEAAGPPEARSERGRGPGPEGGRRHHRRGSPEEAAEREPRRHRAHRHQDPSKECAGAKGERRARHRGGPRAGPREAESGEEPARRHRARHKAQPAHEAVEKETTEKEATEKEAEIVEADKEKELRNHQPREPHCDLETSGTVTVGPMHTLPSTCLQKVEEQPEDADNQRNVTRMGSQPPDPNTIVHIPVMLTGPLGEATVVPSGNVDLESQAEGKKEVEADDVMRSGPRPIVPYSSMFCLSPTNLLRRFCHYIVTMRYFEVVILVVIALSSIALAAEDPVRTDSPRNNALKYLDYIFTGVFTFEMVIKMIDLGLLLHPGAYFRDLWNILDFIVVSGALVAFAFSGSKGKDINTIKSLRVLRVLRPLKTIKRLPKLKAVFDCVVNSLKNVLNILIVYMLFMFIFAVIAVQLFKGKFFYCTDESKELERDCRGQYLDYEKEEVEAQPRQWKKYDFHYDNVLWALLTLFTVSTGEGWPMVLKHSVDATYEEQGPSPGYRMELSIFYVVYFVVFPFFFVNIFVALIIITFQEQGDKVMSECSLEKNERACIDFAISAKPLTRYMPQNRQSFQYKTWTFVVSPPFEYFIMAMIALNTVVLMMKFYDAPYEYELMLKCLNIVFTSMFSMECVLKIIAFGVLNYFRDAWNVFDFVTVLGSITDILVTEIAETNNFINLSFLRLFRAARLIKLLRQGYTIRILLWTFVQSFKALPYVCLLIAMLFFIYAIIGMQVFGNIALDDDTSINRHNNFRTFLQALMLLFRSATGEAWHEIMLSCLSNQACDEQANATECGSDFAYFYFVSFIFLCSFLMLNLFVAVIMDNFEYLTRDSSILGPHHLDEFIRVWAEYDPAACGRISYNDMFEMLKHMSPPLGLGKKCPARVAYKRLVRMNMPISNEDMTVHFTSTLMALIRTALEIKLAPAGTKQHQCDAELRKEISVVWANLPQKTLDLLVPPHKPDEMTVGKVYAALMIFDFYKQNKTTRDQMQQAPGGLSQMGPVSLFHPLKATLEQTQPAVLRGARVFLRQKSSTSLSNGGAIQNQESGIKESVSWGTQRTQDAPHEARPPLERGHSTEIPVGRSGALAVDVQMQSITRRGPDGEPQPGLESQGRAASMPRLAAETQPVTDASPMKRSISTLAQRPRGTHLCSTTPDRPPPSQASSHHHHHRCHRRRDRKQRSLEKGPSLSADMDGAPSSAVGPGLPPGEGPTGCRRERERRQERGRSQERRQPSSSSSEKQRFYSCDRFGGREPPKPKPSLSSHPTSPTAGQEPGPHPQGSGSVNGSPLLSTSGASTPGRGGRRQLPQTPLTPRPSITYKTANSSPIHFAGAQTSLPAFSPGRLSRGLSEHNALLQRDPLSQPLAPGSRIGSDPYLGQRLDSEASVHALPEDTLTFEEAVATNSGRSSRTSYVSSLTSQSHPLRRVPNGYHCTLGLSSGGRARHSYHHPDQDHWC
T2 sequence (Q02410 whole entry): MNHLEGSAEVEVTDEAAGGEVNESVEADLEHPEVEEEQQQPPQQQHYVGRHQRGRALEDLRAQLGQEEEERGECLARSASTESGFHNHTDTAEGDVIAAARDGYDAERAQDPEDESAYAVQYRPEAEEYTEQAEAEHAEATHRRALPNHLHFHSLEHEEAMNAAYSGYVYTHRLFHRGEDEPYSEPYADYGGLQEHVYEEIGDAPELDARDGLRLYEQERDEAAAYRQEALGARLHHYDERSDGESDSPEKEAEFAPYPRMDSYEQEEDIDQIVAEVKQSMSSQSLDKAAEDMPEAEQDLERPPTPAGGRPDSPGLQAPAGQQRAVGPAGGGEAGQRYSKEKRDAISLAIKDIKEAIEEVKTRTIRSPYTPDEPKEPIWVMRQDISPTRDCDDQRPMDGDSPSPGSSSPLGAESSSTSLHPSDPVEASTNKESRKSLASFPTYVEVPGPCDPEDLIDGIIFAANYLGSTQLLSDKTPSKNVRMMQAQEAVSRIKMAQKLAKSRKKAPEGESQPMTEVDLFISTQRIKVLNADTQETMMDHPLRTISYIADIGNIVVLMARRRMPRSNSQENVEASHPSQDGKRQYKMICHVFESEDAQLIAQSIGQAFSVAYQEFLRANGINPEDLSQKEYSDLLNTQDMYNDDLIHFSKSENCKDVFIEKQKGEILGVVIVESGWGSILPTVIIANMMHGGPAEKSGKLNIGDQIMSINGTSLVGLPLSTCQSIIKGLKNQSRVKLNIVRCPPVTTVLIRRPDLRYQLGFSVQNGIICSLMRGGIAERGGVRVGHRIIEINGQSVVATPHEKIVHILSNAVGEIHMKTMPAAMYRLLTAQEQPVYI

[20] = molecular target: T2, Voltage-gated N-type calcium channel alpha-1B subunit/Amyloid beta A4 precursor protein-binding family A member 1; assay type: protein assay; remark: listed apart in the source
[21] = inhibitors of Vif binding to APOBEC3G peptide, primary screen, biochemical, TR-FRET, GST-Vif 1-94, biotin-A3G peptide, dose response retest (AID 1117319); assay type: functional;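 also: TR-FRET signal of purified GST-Vif binding a biotinylated A3G peptide; inhibitors lower the FRET signal by blocking Vif and A3G binding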
[22] = molecular target: Induced myeloid leukemia cell differentiation protein Mcl-1 (Homo sapiens, UniProt Q07820); assay type: functional
Induced myeloid leukemia cell differentiation protein Mcl-1, sequence (Q07820 whole entry): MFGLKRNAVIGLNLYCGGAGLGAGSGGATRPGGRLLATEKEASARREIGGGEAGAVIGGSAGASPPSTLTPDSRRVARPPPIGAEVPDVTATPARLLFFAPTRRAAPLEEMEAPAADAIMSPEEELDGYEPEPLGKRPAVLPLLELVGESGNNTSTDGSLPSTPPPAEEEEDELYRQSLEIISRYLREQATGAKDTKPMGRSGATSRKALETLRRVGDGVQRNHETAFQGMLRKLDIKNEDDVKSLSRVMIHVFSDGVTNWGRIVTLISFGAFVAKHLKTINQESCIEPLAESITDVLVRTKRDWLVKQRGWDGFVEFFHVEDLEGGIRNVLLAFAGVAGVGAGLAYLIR

Estrogen receptor beta = Estrogen receptor beta (Homo sapiens, UniProt Q92731);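 also: recombinant ER-beta bound to coactivator SRC1 peptide in presence of estradiol agonist; inhibitors block coactivator peptide binding and lower the FRET signal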
Estrogen receptor beta, sequence (Q92731 whole entry): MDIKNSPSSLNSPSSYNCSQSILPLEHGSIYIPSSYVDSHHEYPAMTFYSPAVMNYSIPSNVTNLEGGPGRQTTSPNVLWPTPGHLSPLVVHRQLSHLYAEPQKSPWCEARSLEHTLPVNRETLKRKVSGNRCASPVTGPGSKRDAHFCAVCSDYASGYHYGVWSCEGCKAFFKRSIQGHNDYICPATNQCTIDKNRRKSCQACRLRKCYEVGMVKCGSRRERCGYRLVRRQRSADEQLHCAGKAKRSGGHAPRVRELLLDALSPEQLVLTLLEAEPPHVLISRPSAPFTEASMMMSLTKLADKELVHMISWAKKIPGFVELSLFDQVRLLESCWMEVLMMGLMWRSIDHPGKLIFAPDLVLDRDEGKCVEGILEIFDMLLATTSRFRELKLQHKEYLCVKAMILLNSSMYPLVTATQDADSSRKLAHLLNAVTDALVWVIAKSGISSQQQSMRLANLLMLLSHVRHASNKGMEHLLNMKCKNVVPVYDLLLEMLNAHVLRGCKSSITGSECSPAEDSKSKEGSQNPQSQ

C[C@@H](NC(=O)C[C@H]1C[C@@H]2c3cc(NS(=O)(=O)c4ccc(F)cc4)ccc3O[C@@H]2[C@H](CO)O1)c1ccccc1
AC50 [1]: 1.4 µM (active) | AC50 [2]: 2.76 µM (active) | AC50 [3]: 1.12 µM (active) | AC50 [4]: 3.32 µM (active) | AC50 [5]: 2.22 µM (active) | AC50 [6]: 31.7 µM (active) | AC50 [7]: 1.09 µM (active)

COc1cccc(NC(=O)CN(C)C(C)C(=O)Nc2ccc(S(=O)(=O)N3CCOCC3)cc2)c1 (stereo unspecified)
EC50 [8]: > 50 µM (active)

COc1ccc(NC(=O)c2ccc(-c3ccccc3)cc2)cc1NS(=O)(=O)c1ccc(F)cc1
IC50 [9]: > 69.5 µM (inactive) | IC50 [10]: > 69.5 µM (inactive)

C[C@]12CCC(O)CC1=CCC1C2CC[C@]2(C)/C(=N\NC(N)=S)CCC12 (stereo partly specified)
EC50 (cells): 0.103 µM (active) | EC50 [11]: < 0.1 µM (active) | EC50 [12]: > 60 µM (not active)

Clc1cccc(-c2nc3c4ccccc4ccn3c2Cc2ccsc2)c1
EC50 [13]: > 67.6 µM (inactive) | IC50 [14]: > 67.6 µM (inactive)

O=C(c1cccs1)N1N=C(c2ccccc2)CC1c1ccc(O)cc1 (stereo unspecified)
IC50 [9]: > 69.5 µM (inactive) | CC50 [15]: 24.2 µM (active) | IC50 [10]: > 69.5 µM (inactive)

COc1ccc(-n2c(Cc3cccs3)nnc2SCC(=O)Nc2ccc(OCc3ccccc3)cc2)cc1
IC50 [9]: > 69.5 µM (inactive) | IC50 [10]: > 69.5 µM (inactive)

Cc1cc(-c2ccccc2)cc(-c2ccccc2)[n+]1CCc1ccccc1.[O-][Cl+3]([O-])([O-])[O-]
AC50 (INS1): < 0.195 µM (active) | EC50 (cells): 0.07 µM (active) | EC50 [16]: > 160 µM (inactive) | EC50 [11]: < 0.1 µM (active) | EC50 [17]: 2.98 µM (active) | EC50 [12]: > 60 µM (not active)

O=[N+]([O-])c1ccc(-c2c[nH]c(S)n2)cc1
AC50 [18]: 1.99 µM (active) | IC50 [19]: 11.3 µM (active) | IC50 [20]: > 50 µM (inactive) | IC50 [21]: > 100 µM (active) | IC50 [22]: 1.38 µM (active)

O=C(Nc1ccon1)C12CC3CC(C1)CC(n1cnc([N+](=O)[O-])n1)(C3)C2
EC50 (cells): 0.088 µM (active) | EC50 [11]: < 0.1 µM (active) | EC50 [12]: > 60 µM (not active)

Nc1[nH]n(-c2ccccc2)c(=O)c1/N=N/c1ccccc1[N+](=O)[O-]
IC50 (Estrogen receptor beta): > 50 µM (not active)

CCN(CC)CCCNC(=O)c1c(O)nc2c(c1O)CCCC2
EC50 [8]: > 50 µM (active)
